From patent publication US8609695B2, “Methods of treating and/or suppressing insulin resistance” (Endorecherche, Inc., priority 1999, dated 2013)

What was measured:
Assay type in all cases: in vivo, Rattus norvegicus
[1] = system: ovariectomized female rats; test: Uterine weight, fat and lipid, 20-day treatment (Example 13); conditions: 20 days
Protocol: The objective of this study was to compare the effect on uterine, weight, fat and blood lipids following treatment with EM-652.HCl, ERA-923 and lasofoxifene, administered alone or in combination with EM-652.HCl, to ovariectomized female rats. For this purpose, each compound was administered orally for 20 days to ovariectomized female rats and at the end of the treatment period, the uterus and fat were collected and weighed.
d) Diet: • Certified Rodent feed (Lab Diet #5002, pellets) and tap water were provided ad libitum. Randomization:
Seventy rats were separated into 7 groups of 9 to 11 animals for conduct of the study outlined below:
Animals from groups 2 to 9 were ovariectomized under Isoflurane-induced anesthesia on Day 7 of the study.
The vehicle or tested compounds were given as suspension in 0.4% methylcellulose by oral gavage (0.5 ml/gavage/rat) from Day 2 to Day 21 of the study.
Rats were weighed on Study Day 1 and at the necropsy (SD 22).
Approximately 24 hours after the last dosing, overnight fasted rats under Isoflurane-induced anesthesia were killed by exsanguination at the abdominal aorta.
Uteri and retroperitonal adipose tissue were removed and weighed.

[2] = system: lean and obese Zucker female rats; test: Energy balance and lipid-lipoprotein metabolism in Zucker female rats (Example 8B); conditions: for Lipoprotein lipase activity White retroperitoneal / Lipoprotein lipase activity soleus / Plasma glucose / Plasma insulin / Plasma total cholesterol / Plasma triglycerides / Weight: 2.5 mg/kg orally once daily, 14 days
Protocol: The objective of this study was to determine the cffect of EM-652.HCl on energy balance and lipid-lipoprotein metabolism in lean and obese Zucker female rats. For this purpose, EM-652.HCl (2.5 mg/kg) was administered orally (gavage) once daily for 14 days to intact lean and obese Zucker female rats.
(§1) d) Diet: • During the acclimation period, rats received a commercial rodent diet (Purina, #5075) and tap water ad libitum. During study period, rats received the following diet (diet #3) composed of (g/100 g): Starch, 31.2; Dextrose, 31.2; Casein, 20.0; Corn oil, 6.4; dl-Methionine, 0.3; Vitamin mix, 1.0; AIN-76 mineral mix, 4.9; Fiber, 5.0. Rats were fasted (with access to water only) around 07 h00 the morning of their necropsy day. Randomixation:
Sixteen lean and sixteen obese intact female rats were assigned to 4 groups of 8 rats for conduct of the study outlined below.
(§2) Administration of the tested compound or vehicle started on Day 1 of the study. The tested compound EM-652.HCl was given as suspension in 0.4% methylcellulose by oral gavage (0.5 ml/gavage/rat) once daily for 14 days. Rats from control groups received the vehicle alone (0.5 ml/gavage/rat) for the same time period.
During the acclimation period, animals were weighed two days prior to the start of dosing for randomization. Then, rats were weighed on day 1 of the study and every 2 days during the study period as well as on the day of necropsy. Body weights were recorded with a precision of 1 g.
(§3) Following an approximative 6-hour fasting period, animals were necropsied (approximately 30 hours after the last dosing). They were anesthesized with ketamine-xylazine and blood drawn by cardiac punction.
(§4) Blood lipids (Total cholesterol (CHOL) and Triglycerides (TG)) and glucose were measured on frozen plasma samples using the Boehringer Mannheim Diagnostic Hitachi 911 Analyzer (Boehringer Mannheim Diagnostic Laboratory Systems). Circulating hormones and substrates (Leptin, Insulin, corticosterone) were measured on frozen plasma samples with the following kits: • Leptin: Linco RIA kit • Insulin: Linco RIA kit Organs and Tissues Collected
The retroperitoneal adipose tissue and the soleus (muscle) were collected and frozen in liquid nitrogen for further determination of lipoprotein lipase (LPL) activity.

[3] = system: lean and obese Zucker male rats; test: Energy balance and lipid-lipoprotein metabolism in Zucker male rats (Example 8A); conditions: for Lipoprotein lipase activity White retroperitoneal / Lipoprotein lipase activity soleus / Plasma glucose / Plasma insulin / Plasma total cholesterol / Plasma triglycerides / Weight gain: 2.5 mg/kg orally once daily, 14 days; for decrease of body weight gain / reduction of plasma insulin: 2.5 mg/kg/day
Protocol: The objective of this study was to determine the effect of EM-652.HCl on energy balance and lipid-lipoprotein metabolism in lean and obese Zucker male rats. For this purpose, EM-652.HCl (2.5 mg/kg) was administered orally (gavage) once daily for 14 days to intact lean and obese Zucker male rats.
as §1, with “Diet:” for “Diet: •”, “5.0.” for “5.0. Rats were fasted (with access to water only) around 07 h00 the morning of their necropsy day. Randomixation:”
Test groups: Sixteen lean and sixteen obese intact male rats were assigned to 4 groups of 8 rats for conduct of the study outlined below
as §2
During the acclimation period, animals were weighed one day prior to the start of dosing for randomization. Then, rats were weighed on the first dosing day and every 2 days thereafter as well as on the day of necropsy. Body weights were recorded with a precision of 1 g.
as §3
as §4, with “substrates (Leptin, Insulin) were measured” for “substrates (Leptin, Insulin, corticosterone) were measured”, “Leptin: Linco RLA kit •” for “Leptin: Linco RIA kit •”, “and Tissues Collected:” for “and Tissues Collected”
The retroperitoneal adipose tissue and the soleus (muscle) were collected and frozen in liquid nitrogen for further determination of lipoprotein lipase (LPL) activity. The prostate, testes (right and left together) and right seminal vesicle (empty of fluid) were weighed. The right seminal vesicles were discarded.

[4] = OVX rats, commercial rodent diet, 0.5 mg oral, EM-652.HCl 2.5 mg in combinations

For `CC1=C(c2ccc(O)cc2)[C@H](c2ccc(OCCN3CCCCC3)cc2)Oc2cc(O)ccc21.Cl` [EM-652.HCl, (S)-(+)-7-hydroxy-3-(4′-hydroxyphenyl)-4-methyl-2-(4″-(2′″-piperidino-ethoxy)phenyl)-2H-1-benxopyran hydrochloride], the “OVX-induced increase in total serum cholesterol levels” value ([1]; 0.5 mg) was “completely prevented”, the “prevention of body weight increase induced by ovariectomy” value ([1]; OVX rats, 0.5 mg) was 64% and the Cholesterol [1, 4] was 1.00 ± 0.11 mmol/L. For the same molecule, the “Final Body Weight” value [1, 4] was 238 ± 4 g, the “Lipoprotein lipase activity White retroperitoneal” value ([2]; lean Zucker female rats) was 1349 ± 246 μU/g protein and the “Lipoprotein lipase activity soleus” value ([2]; lean Zucker female rats) was 60.8 ± 11.1 μU/g protein. For the same molecule, the Plasma glucose ([2]; lean Zucker female rats) was 9.60 ± 0.41 mmol/L, the Plasma insulin ([2]; lean Zucker female rats) was 0.063 ± 0.012 nmol/L and the Plasma total cholesterol ([2]; lean Zucker female rats) was 1.57 ± 0.14 mmol/L. The Plasma triglycerides ([2]; lean Zucker female rats) was 0.83 ± 0.07 mmol/L, the Weight ([2]; lean Zucker female rats) was 154 ± 5 g and the “reduction of plasma insulin” value ([2]; lean female Zucker rats, 2.5 mg/kg/day) was 48%. For the same molecule, the “Lipoprotein lipase activity White retroperitoneal” value ([2]; obese Zucker female rats) was 3819 ± 485 μU/g protein, the “Lipoprotein lipase activity soleus” value ([2]; obese Zucker female rats) was 36.6 ± 7.1 μU/g protein and the Plasma glucose ([2]; obese Zucker female rats) was 11.70 ± 0.47 mmol/L. The Plasma insulin ([2]; obese Zucker female rats) was 0.515 ± 0.091 nmol/L, the Plasma total cholesterol ([2]; obese Zucker female rats) was 3.27 ± 0.97 mmol/L and the Plasma triglycerides ([2]; obese Zucker female rats) was 22.20 ± 4.44 mmol/L. The Weight ([2]; obese Zucker female rats) was 291 ± 9 g, the “effect on plasma insulin” value ([2]; obese female Zucker rats, 2.5 mg/kg/day) was “no significant effect” and the “Lipoprotein lipase activity White retroperitoneal” value ([3]; lean Zucker male rats) was 1701 ± 348 μU/g protein. For the same molecule, the “Lipoprotein lipase activity soleus” value ([3]; lean Zucker male rats) was 69.5 ± 8.4 μU/g protein, the Plasma glucose ([3]; lean Zucker male rats) was 9.35 ± 0.51 mmol/L and the Plasma insulin ([3]; lean Zucker male rats) was 0.062 ± 0.005 nmol/L. For the same molecule, the Plasma total cholesterol ([3]; lean Zucker male rats) was 1.18 ± 0.09 mmol/L, the Plasma triglycerides ([3]; lean Zucker male rats) was 1.52 ± 0.13 mmol/L and the Weight gain ([3]; lean Zucker male rats) was 44.9 ± 3.5 g. The “decrease of body weight gain” value ([3]; lean male Zucker rats) was 38%, the “reduction of plasma insulin” value ([3]; lean male Zucker rats) was 35% and the “Lipoprotein lipase activity White retroperitoneal” value ([3]; obese Zucker male rats) was 7046 ± 1185 μU/g protein. For the same molecule, the “Lipoprotein lipase activity soleus” value ([3]; obese Zucker male rats) was 58.1 ± 4.6 μU/g protein, the Plasma glucose ([3]; obese Zucker male rats) was 11.84 ± 0.62 mmol/L and the Plasma insulin ([3]; obese Zucker male rats) was 0.475 ± 0.087 nmol/L. For the same molecule, the Plasma total cholesterol ([3]; obese Zucker male rats) was 2.28 ± 0.25 mmol/L, the Plasma triglycerides ([3]; obese Zucker male rats) was 7.16 ± 1.06 mmol/L and the Weight gain ([3]; obese Zucker male rats) was 71.6 ± 3.3 g. The “decrease of body weight gain” value ([3]; obese male Zucker rats) was 35% and the “reduction of plasma insulin” value ([3]; obese male Zucker rats) was 57%.
